Values quoted from earlier work, collected in patent publication US11103497B2, “Treatment of imatinib resistant leukemia” (Wyeth LLC, priority 2007, dated 2021).

Key:
BcrAbl T315I = settings: patients with amino acid mutation T315I in BcrAbl; cited from earlier work
chronic myeloid leukemia = settings: patients with chronic myeloid leukemia; cited from earlier work
CML cells = settings: in culture; cited from earlier work
CML tumors = settings: nude mice; cited from earlier work

Row | SMILES | effectiveness against CML (BcrAbl T315I) | 5-year survival rate (chronic myeloid leukemia) | toxicity to CML cells (CML cells) | regression of CML tumors (CML tumors)
1 | Cc1cn(-c2cc(NC(=O)c3ccc(C)c(Nc4nccc(-c5cccnc5)n4)c3)cc(C(F)(F)F)c2)cn1 [nilotinob] | not effective | – | – | –
2 | Cc1ccc(NC(=O)c2ccc(CN3CCN(C)CC3)cc2)cc1Nc1nccc(-c2cccnc2)n1 [Imatinib] | – | ~90% | toxic | causes regression
